Experimental data taken from patent US20220117938A1, “COMBINATON THERAPY WITH A DON PRODRUG AND AN IMMUNE CHECKPOINT INHIBITOR” (DRACEN PHARMACEUTICALS, INC., priority 2019, published 2022).

Columns and labels:
[1] = system: MC-38 tumors; assay: MC-38 re-implantation study in tumor free mice (Example 3); format: in vivo, Mus musculus; settings: for Tumor volume (Mean ± SEM): four tumor free mice of Group 5 (0.7 mpk 5-days ON 2-days OFF x 4 cycles)
Experimental: Four mice in Group 5 were tumor free on D67 and 1×10^6 MC-38 cells suspended in 100 μL base DMEM were inoculated subcutaneously into the left flank. 5 naïve mice were inoculated with the same inoculation condition as control. The tumor sizes were measured three times per week during the treatment. The study was terminated on D102.
Four mice in Group 5 were tumor free on D67 and 1×10^6 MC-38 cells suspended in 100 μL base DMEM were inoculated subcutaneously into the left flank. 5 naïve mice were inoculated with the same inoculation condition as control.

[2] = system: LK-2 tumors; assay: Anti-tumor efficacy of Compound 1 in the LK-2 xenograft model (Example 13); format: in vivo, mice
Experimental: Female BALB/c nude mice were inoculated subcutaneously in the right flank with LK-2 cells for tumor development. Four days after tumor inoculation, mice with tumor sizes reaching approximately 171 mm^3 (range from 112 mm^3 to 222 mm^3) were selected and assigned into groups using stratified randomization with 8 mice per group based upon their tumor volumes. The treatments were started from the day of randomization (defined as D0), Group 1 was treated with Vehicle control, 10 ml/kg, IP, bid×19; Group 2 was treated with Compound 1, 1.4 mg/kg, SC, 5d ON, 2d OFF×2 cycles, followed Compound 1, 2.8 mg/kg, SC, 5d ON, 2 d OFF×1 cycle; Group 3 was treated with Compound 1, 7 mg/kg, IV, tiw (Mon, Wed, Fri)×3 cycles; and Group 4 was treated with Compound 1, 3.3 mg/kg, IV, tiw (Mon, Wed, Fri)×3 cycles. The tumor sizes were measured two times per week during the treatment. The entire study was terminated on D18 after start of the treatment. All treatments were well-tolerated without any adverse effects or significant body weight loss.

[3] = 4 cured mice of Group 5 (0.7 mpk) re-implanted with MC-38 cells
[4] = Group 2, 1.4 mg/kg SC 5 d ON 2 d OFF x2 cycles, then 2.8 mg/kg x1 cycle
[5] = Group 3, 7 mg/kg IV tiw x3 cycles
[6] = Group 4, 3.3 mg/kg IV tiw x3 cycles

CC(=O)N[C@@H](Cc1c[nH]c2ccccc12)C(=O)N[C@@H](CCC(=O)C=[N+]=[N-])C(=O)OC(C)C [Compound 1, Isopropyl (S)-2-((S)-2-acetamido-3-(1H-indol-3-yl)propanamido)-6-diazo-5-oxohexanoate] was tested, and the “Re-implanted cured mice still tumor free on Day 35 after re-implantation” value [1, 3] was “one”, the “Re-implanted cured mice that regrew the tumor” value [1, 3] was “three” and the “Tumor volume (Mean ± SEM)” value ([1]; Day 7 after re-implantation) was 32 ± 14 mm^3. The “Tumor volume (Mean ± SEM)” value ([1]; Day 9 after re-implantation) was 106 ± 44 mm^3, the “Tumor volume (Mean ± SEM)” value ([1]; Day 11 after re-implantation) was 152 ± 55 mm^3 and the “Tumor volume (Mean ± SEM)” value ([1]; Day 14 after re-implantation) was 373 ± 174 mm^3. For the same compound, the “Tumor volume (Mean ± SEM)” value ([1]; Day 16 after re-implantation) was 568 ± 258 mm^3, the “Tumor volume (Mean ± SEM)” value ([1]; Day 18 after re-implantation) was 886 ± 429 mm^3 and the “Tumor volume (Mean ± SEM)” value ([1]; Day 21 after re-implantation) was 1911 ± 794 mm^3. For the same compound, the “RTV at day 11” value [2, 4] was 8.13 ± 1.31, the T/C [2, 4] was 84.34% and the TGI [2, 4] was 19.84%. For the same compound, the “Tumor Size at day 14” value [2, 4] was 1359 ± 207 mm^3, the Tumor volume ([2]; Group 2, 1.4 mg/kg SC 5 d ON 2 d OFF x2 cycles, then 2.8 mg/kg x1 cycle, day 0) was 171 ± 10 mm^3 and the Tumor volume ([2]; Group 2, 1.4 mg/kg SC 5 d ON 2 d OFF x2 cycles, then 2.8 mg/kg x1 cycle, day 2) was 207 ± 19 mm^3. It also gave a Tumor volume ([2]; Group 2, 1.4 mg/kg SC 5 d ON 2 d OFF x2 cycles, then 2.8 mg/kg x1 cycle, day 4) of 217 ± 24 mm^3, a Tumor volume ([2]; Group 2, 1.4 mg/kg SC 5 d ON 2 d OFF x2 cycles, then 2.8 mg/kg x1 cycle, day 7) of 419 ± 81 mm^3 and a Tumor volume ([2]; Group 2, 1.4 mg/kg SC 5 d ON 2 d OFF x2 cycles, then 2.8 mg/kg x1 cycle, day 10) of 780 ± 128 mm^3. For the same compound, the Tumor volume ([2]; Group 2, 1.4 mg/kg SC 5 d ON 2 d OFF x2 cycles, then 2.8 mg/kg x1 cycle, day 14) was 1359 ± 207 mm^3, the “RTV at day 11” value [2, 5] was 6.29 ± 0.75 and the T/C [2, 5] was 65.30%. The TGI [2, 5] was 40.73%, the “Tumor Size at day 14” value [2, 5] was 1050 ± 113 mm^3 and the Tumor volume ([2]; Group 3, 7 mg/kg IV tiw x3 cycles, day 0) was 171 ± 11 mm^3. The Tumor volume ([2]; Group 3, 7 mg/kg IV tiw x3 cycles, day 2) was 196 ± 9 mm^3, the Tumor volume ([2]; Group 3, 7 mg/kg IV tiw x3 cycles, day 4) was 213 ± 8 mm^3 and the Tumor volume ([2]; Group 3, 7 mg/kg IV tiw x3 cycles, day 7) was 256 ± 13 mm^3. The Tumor volume ([2]; Group 3, 7 mg/kg IV tiw x3 cycles, day 10) was 483 ± 44 mm^3, the Tumor volume ([2]; Group 3, 7 mg/kg IV tiw x3 cycles, day 14) was 1050 ± 113 mm^3 and the Tumor volume ([2]; Group 3, 7 mg/kg IV tiw x3 cycles, day 17) was 1565 ± 175 mm^3. For the same compound, the “RTV at day 11” value [2, 6] was 7.66 ± 0.88, the T/C [2, 6] was 79.51% and the TGI [2, 6] was 24.13%. For the same compound, the “Tumor Size at day 14” value [2, 6] was 1294 ± 172 mm^3, the Tumor volume ([2]; Group 4, 3.3 mg/kg IV tiw x3 cycles, day 0) was 170 ± 10 mm^3 and the Tumor volume ([2]; Group 4, 3.3 mg/kg IV tiw x3 cycles, day 2) was 193 ± 6 mm^3. It also gave a Tumor volume ([2]; Group 4, 3.3 mg/kg IV tiw x3 cycles, day 4) of 211 ± 6 mm^3, a Tumor volume ([2]; Group 4, 3.3 mg/kg IV tiw x3 cycles, day 7) of 374 ± 47 mm^3 and a Tumor volume ([2]; Group 4, 3.3 mg/kg IV tiw x3 cycles, day 10) of 577 ± 68 mm^3. For the same compound, the Tumor volume ([2]; Group 4, 3.3 mg/kg IV tiw x3 cycles, day 14) was 1294 ± 172 mm^3.
